Laboratory results as given in ChEMBL document CHEMBL1148048, “Two new tryptophan-derived alkaloids from the Okinawan marine sponge Aplysina sp” (J Nat Prod, 1994).
≈ marks a conversion by molar mass, not a printed value.

Tests used:
L1210 = experiment: Cytotoxicity against mouse L1210 cells; format: functional, cell-based
KB [1] = experiment: Cytotoxicity against human KB cells; format: functional, cell-based
KB [2] = experiment: Cytotoxicity against human KB cells at 20 ug/ml; format: functional

Structure (SMILES) | IC50 (L1210) | IC50 (KB [1]) | inhibition at 20 µg/mL (KB [2])
CN1C(=N)N(C)/C(=C/c2c[nH]c3ccccc23)C1=O [APLYSINOPSIN] | 2.3 µg/mL (≈ 9.04 µM) | 6.4 µg/mL (≈ 25.2 µM) | 
C/N=C1\NC(=O)/C(=C\c2c[nH]c3ccccc23)N1C [ISOPLYSIN A] | 11.5 µg/mL (≈ 45.2 µM) |  | 31%
C/N=C1\N(C)C(=O)/C(=C\c2c[nH]c3ccccc23)N1C [METHYLAPLYSINOPSIN] | 3.5 µg/mL (≈ 13 µM) | 6.7 µg/mL (≈ 25 µM) | 
